{"source": "paper PMC3368272", "about": "“The host-seeking inhibitory peptide, Aea-HP-1, is made in the male accessory gland and transferred to the female during copulation” (Peptides, 2012)", "key": {"[1]": {"target": "T1, D. melanogaster sex peptide receptor (SPR) (Drosophila melanogaster, UniProt Q8SWR3)", "T1 construct": "expressed in transfected cells; host or cells: CHO-K1 cells co-expressing aequorin and chimaeric G-protein Gαqi", "T1 sequence (Q8SWR3 1-435)": "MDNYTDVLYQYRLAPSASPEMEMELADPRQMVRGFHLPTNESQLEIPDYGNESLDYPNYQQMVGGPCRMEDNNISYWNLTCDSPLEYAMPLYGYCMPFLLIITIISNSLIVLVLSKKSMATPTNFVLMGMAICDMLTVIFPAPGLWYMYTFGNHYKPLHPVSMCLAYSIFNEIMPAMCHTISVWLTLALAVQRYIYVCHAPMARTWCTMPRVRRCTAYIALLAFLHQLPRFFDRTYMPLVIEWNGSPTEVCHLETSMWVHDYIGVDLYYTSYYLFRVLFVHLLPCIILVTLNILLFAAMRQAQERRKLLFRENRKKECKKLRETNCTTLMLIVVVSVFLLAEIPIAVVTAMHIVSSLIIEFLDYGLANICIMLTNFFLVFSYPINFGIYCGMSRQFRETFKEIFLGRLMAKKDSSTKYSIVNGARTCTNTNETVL", "assay": "Ligand-mediated receptor activation, CHO-K1 cells expressing aequorin", "assay_type": "cell-based", "conditions": "D. melanogaster SPR in CHO cells with aequorin and Gαqi; up to 10 μM; n = 4", "procedure": "(§1) Ligand-mediated receptor activation was measured using an established expression system employing CHO-K1 cells expressing the Ca^2+ reporter aequorin [42]. The construction of the expression constructs for D. melanogaster sex peptide receptor (SPR) and A. aegypti SPR and the measurement of the luminescent signals have been reported previously.\n(§2) Fig. 6 Aea-HP-1 is not an active agonist for SPRs from D. melanogaster (A) and A. aegypti (B). Luminescent responses of CHO cells expressing SPR, aequorin and a chimaeric G-protein, Gαqi, and treated with varying concentrations of Aea-HP-1 and SP. Each data point is mean ± s.d. (n = 4)."}, "A. aegypti SPR": {"tested_on": "A. aegypti SPR", "assay": "Ligand-mediated receptor activation, CHO-K1 cells expressing aequorin", "assay_type": "cell-based, Aedes aegypti", "conditions": "A. aegypti SPR in CHO cells with aequorin and Gαqi; up to 10 μM; n = 4", "procedure": "as §1, §2"}, "[2]": {"tested_on": "virgin D. melanogaster females", "assay": "Post-mating response (receptivity) after injection into virgin females", "assay_type": "in vivo, Drosophila melanogaster", "conditions": "injected into the hemocoel of virgin D. melanogaster females; receptivity assayed 5 h after injection with naive Canton-S males", "procedure": "Injections of either Aea-HP-1 or SP into the abdomen of virgin D. melanogaster females were performed as described previously. After injection, females were transferred to individual food vials and were tested after 5 h for receptivity with a naive Canton S male.\nReceptivity of virgin females assayed 5 h after injection with either synthetic peptides (Aea-HP-1 or SP) or Ringer's solution alone. Wild type W1118 females were injected and assayed with naïve Canton-S males. Numbers in parenthesis indicate numbers of animal assayed. n.s., p > 0.05; ***p < 0.0001, one-way ANOVA (Tukey post-test) compared with Ringer treatment."}, "[3]": {"tested_on": "virgin A. aegypti females", "assay": "Mating rejection after injection into the hemocoel of virgin females", "assay_type": "in vivo, Aedes aegypti", "conditions": "0.1–1 μg injected into the hemocoel of virgin A. aegypti females; data not presented", "text": "Transplantation of MAGs, or injection of gland extracts, into female A. aegypti can elicit a variety of post-mating responses including refractoriness to re-mating and inhibition of host-seeking and biting behavior [13]. […] This failure might be due to lack of accessibility and the known rapid catabolism of Aea-HP-1 in the hemolymph. D. melanogaster SP has wide-ranging effects on physiology and behavior some of which are mediated primarily through activation of the SP/MIP receptor that is expressed in sensory neurons of the uterus. The D. melanogaster SP receptor and its A. aegypti orthologue are also strongly activated by myoinhibitory peptides (MIPs), a family of peptides that are found in species from different insect orders and are considered to be the ancestral ligands for these receptors [[19,33,41]]. The receptors are also activated by unidentified ligands present in whole body extract of adult A. aegypti. Although Aea-HP-1 has no obvious structural similarity to either SP or MIP, the promiscuity of the SP/MIP receptor led us to consider the possibility that the head peptide might also be an agonist of the MIP receptor."}, "[4]": {"parameters": "species or system Aedes aegypti", "conditions": "in vivo", "procedure": "Tissues were dissected from adult mosquitoes in phosphate buffered saline (PBS, MP Biomedicals, Cambridge, UK) and collected into acidified methanol (86%, v/v, aqueous methanol and 5% v/v glacial acetic acid). MAGs and male seminal vesicles (SVs) (5 pairs per 100 μl) were typically prepared for analysis by infusing whole tissues in acidified methanol for 30 min, then centrifuging for 10 min at 13,000 rpm in a bench-top microcentrifuge, retaining the supernatant. Homogenization was avoided to provide a cleaner sample for analysis. […]\nMosquito tissues were analyzed for Aea-HP-1 by subjecting either acidified methanol extracts or intact tissues to MALDI/TOF-MS analysis. […]\nMALDI/TOF-MS was used to analyze methanol extracts for the presence of Aea-HP-1 in the reproductive tract (uterus, spermathecae, bursa copulatrix, oviduct, but not the ovary) of individual virgin and post-mated females obtained by introducing a single female into a cage of 50 males until mating was observed (<5 min). […] In contrast, the molecular ions for Aea-HP-1 (m/z, 1227.9) and Aea-HP-3 (m/z, 1211.9) were detected in methanol extracts of tissues from nine out of thirteen post-copulated females. Extracts were also analyzed quantitatively by ELISA using synthetic Aea-HP-1 as a standard and the results were compared to the amount of material found in extracts of MAGs dissected from virgin males. […]"}, "[5]": {"conditions": "mosquito hemolymph, after 30 min; cited from earlier work", "text": "(§3) Aea-HP-1 has been tested for myogenic and behavior modifying activity in A. aegypti."}, "[6]": {"tested_on": "isolated oviduct and hindgut of female mosquitoes", "conditions": "female A. aegypti tissues; cited from earlier work", "text": "as §3"}, "non-öogenic females": {"tested_on": "non-öogenic females", "conditions": "cited from earlier work", "text": "as §3"}}, "note": "Square brackets hold non-standard residues; d marks the D form. Peptide text beside a SMILES is read from it. Hyp = O=C(O)[C@@H]1C[C@@H](O)CN1; pGlu = O=C1CC[C@@H](C(=O)O)N1", "data": [{"compound": "CC(C)C[C@H](NC(=O)[C@H](CO)NC(=O)[C@@H]1C[C@@H](O)CN1C(=O)[C@@H]1CCCN1C(=O)[C@H](CCCNC(=N)N)NC(=O)[C@@H]1CCC(=O)N1)C(=O)N[C@@H](CCCCN)C(=O)N[C@H](C(=O)N[C@@H](CCCNC(=N)N)C(=O)N[C@@H](Cc1ccccc1)C(N)=O)[C@@H](C)O", "note": "[Aea-HP-1, pERPhPSLKTRFamide] ([pGlu]RP[Hyp]SLKTRF-NH2)", "values": [{"measurement": "activation of SP/MIP receptor (luminescent response)", "setting": "[1]", "result": "did not activate"}, {"measurement": "activation of SP/MIP receptor (luminescent response)", "setting": "A. aegypti SPR", "result": "did not activate"}, {"measurement": "rejection of male advances (post-mating response)", "setting": "[2]", "result": "did not elicit rejection of male advances"}, {"measurement": "induction of mating rejection", "setting": "[3]", "result": "not been able to show that Aea-HP-1 can induce mating rejection"}, {"measurement": "persistence in the female reproductive tract after copulation", "setting": "[4]", "result": "less than 2 h"}, {"measurement": "peptide remaining in the circulation", "setting": "[5]", "result": "around 17%"}, {"measurement": "stimulation of contractions of isolated oviduct and hindgut", "setting": "[6]", "result": "did not stimulate contractions"}, {"measurement": "effect on host-seeking behavior", "setting": "non-öogenic females; injected into female A. aegypti", "result": "inhibiting host-seeking behavior"}, {"measurement": "duration of reduction in host-seeking", "setting": "non-öogenic females; injected into non-öogenic female A. aegypti", "result": "up to 5 h"}]}]}
